Source: patent publication US7829665B2 (priority 2005, dated 2010)

target: T1, full-length NS3/NS4A-2 (HCV NS3 protease) (Hepatitis C virus genotype 1a, UniProt P27958); assay: NS3-NS4 protease assay / NS3 inhibition assay (RETS1 substrate, fluorescence kinetic read); format: biochemical; conditions: not given
T1 construct: Recombinant E. coli or Baculovirus full-length NS3 was diluted to 3.33 μM with assay buffer; made in house; host or cells: E. coli or baculovirus (BV) expression system
In short: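 Full-length NS3 from E. coli (2 nM in assay) or baculovirus (3 nM) was precomplexed with excess NS4A-2 peptide, then preincubated 10 min at room temperature with serially diluted compounds starting at 50 microM. Reaction was started with RETS1 substrate at 8 μM before addition and read kinetically for 30 min (ex 335/em 495 nm). Four-parameter IC50s were converted to Ki by Cheng-Prusoff using Km 2.03 μM (E. coli) or 1.74 μM (BV).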

T1 sequence (P27958 1027-1657): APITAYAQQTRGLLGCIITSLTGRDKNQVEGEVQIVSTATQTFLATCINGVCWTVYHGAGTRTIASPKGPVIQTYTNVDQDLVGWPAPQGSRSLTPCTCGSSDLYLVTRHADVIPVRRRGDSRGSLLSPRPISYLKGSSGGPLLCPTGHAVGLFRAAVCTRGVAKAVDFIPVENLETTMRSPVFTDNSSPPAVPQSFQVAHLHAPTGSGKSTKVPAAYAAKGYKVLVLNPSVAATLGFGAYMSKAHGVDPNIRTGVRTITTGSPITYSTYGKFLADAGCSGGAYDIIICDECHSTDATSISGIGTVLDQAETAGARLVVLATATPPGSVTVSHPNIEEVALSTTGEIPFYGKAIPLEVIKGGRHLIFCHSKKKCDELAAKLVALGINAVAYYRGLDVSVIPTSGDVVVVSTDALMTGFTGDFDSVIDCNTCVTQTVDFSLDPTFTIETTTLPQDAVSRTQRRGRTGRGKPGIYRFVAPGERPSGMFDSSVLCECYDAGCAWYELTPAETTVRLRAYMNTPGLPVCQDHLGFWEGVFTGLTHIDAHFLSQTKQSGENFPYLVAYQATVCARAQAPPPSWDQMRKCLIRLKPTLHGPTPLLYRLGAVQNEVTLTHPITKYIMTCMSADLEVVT

Row | Structure (SMILES) | IC50 [µM]
1 | CC(C)(C)OC(=O)N[C@H]1COCCC/C=C\[C@@H]2C[C@@]2(C(=O)NS(=O)(=O)C2CC2)NC(=O)[C@@H]2C[C@@H](OC(=O)N3Cc4cccc(Cl)c4C3)CN2C1=O [Compound 1025] | < 0.1

same assay, conditions: Table 22; read-out: NS3-NS4 IC50

Row | Structure (SMILES) | IC50 [µM]
2 | CC(C)(C)CNC(=O)[C@@]12C[C@H]1/C=C\CCCCC[C@H](NC(=O)OC(C)(C)C)C(=O)N1CCC[C@H]1C(=O)N2 [Compound 2315] | < 1
3 | COc1ccccc1NC(=O)[C@@]12C[C@H]1/C=C\CCCCC[C@H](NC(=O)OC(C)(C)C)C(=O)N1CCC[C@H]1C(=O)N2 [Compound 2313] | < 1

same assay, conditions: Table 24; read-out: NS3-NS4 IC50

Row | Structure (SMILES) | IC50 [µM]
4 | C[C@H](NC(=O)[C@@]12C[C@H]1/C=C\CCCCC[C@H](NC(=O)OC(C)(C)C)C(=O)N1C[C@H](OC(=O)N3Cc4ccccc4C3)C[C@H]1C(=O)N2)c1ccccc1 [Compound 2502] | > 10

same assay, conditions: recombinant E. coli or Baculovirus full-length NS3 with NS4A-2; read-out: NS3-NS4 IC50

Row | Structure (SMILES) | IC50 [µM]
5 | CC(C)(C)OC(=O)N[C@H]1CCCCC/C=C\[C@@H]2C[C@@]2(C(=O)NS(=O)(=O)N(CCC#N)C2CC2)NC(=O)[C@@H]2CCCN2C1=O [Compound 2210] | < 1
6 | CC1CCCC(C)N1S(=O)(=O)NC(=O)[C@@]12C[C@H]1/C=C\CCCCC[C@H](NC(=O)OC(C)(C)C)C(=O)N1CCC[C@H]1C(=O)N2 (some centres unmarked) [Compound 2223] | < 1
7 | CC(C)(C)OC(=O)N[C@H]1CCCCC/C=C\[C@@H]2C[C@@]2(C(=O)NS(=O)(=O)OCCc2ccccc2)NC(=O)[C@@H]2CCCN2C1=O [Compound 801] | < 10
8 | C[C@H](NS(=O)(=O)NC(=O)[C@@]12C[C@H]1/C=C\CCCCC[C@H](NC(=O)OC(C)(C)C)C(=O)N1CCC[C@H]1C(=O)N2)c1ccccc1 [Compound 416] | < 10
9 | CC(C)(C)OC(=O)N[C@H]1CCCCC/C=C\[C@@H]2C[C@@]2(C(=O)NCc2ccccn2)NC(=O)[C@@H]2CCCN2C1=O [Compound 500] | > 10
10 | O=C1N[C@]2(C(=O)NS(=O)(=O)C3CC3)C[C@H]2/C=C\CCCCC[C@H](Nc2c(N3C4CCC3CC4)c(=O)c2=O)C(=O)N2C[C@H](OC(=O)N3Cc4cccc(F)c4C3)C[C@@H]12 [Compound 199] | < 0.1
11 | CN(C)c1ccc(NS(=O)(=O)NC(=O)[C@@]23C[C@H]2/C=C\CCCCC[C@H](NC(=O)OC(C)(C)C)C(=O)N2CCC[C@H]2C(=O)N3)cc1 [Compound 2231] | < 10
12 | CC(C)C(C(C)C)S(=O)(=O)NC(=O)[C@@]12C[C@H]1/C=C\CCCCC[C@H](NC(=O)OC(C)(C)C)C(=O)N1CCC[C@H]1C(=O)N2 [Compound 2209] | < 1
13 | CC(C)(C)OC(=O)N[C@H]1CCCCC/C=C\[C@@H]2C[C@@]2(C(=O)NS(=O)(=O)Nc2cccc(Cl)c2)NC(=O)[C@@H]2CCCN2C1=O [Compound 2239] | < 1
14 | CC(C)(C)CC(=O)N[C@H]1CCCCC/C=C\[C@@H]2C[C@@]2(C(=O)NS(=O)(=O)C2CC2)NC(=O)C2CCCN2C1=O (some centres unmarked) [Compound 2141] | < 10
15 | CC(C)(C)OC(=O)N[C@H]1CCCCC/C=C\[C@@H]2C[C@@]2(C(=O)NS(=O)(=O)c2cccc3c(Cl)cccc23)NC(=O)[C@@H]2CCCN2C1=O [Compound 309] | < 10
16 | CC(C)(C)OC(=O)NC1CCCCCCCC=CC2CC2(C(=O)NS(=O)(=O)c2ccc([N+](=O)[O-])cc2)NC(=O)C2CCCN2C1=O (centres unmarked) [Compound 2102] | < 10
17 | COc1ccccc1NS(=O)(=O)NC(=O)[C@@]12C[C@H]1/C=C\CCCCC[C@H](NC(=O)OC(C)(C)C)C(=O)N1CCC[C@H]1C(=O)N2 [Compound 2236] | < 1
18 | CC(C)(C)OC(=O)NC1CCCCCCCC=CC2CC2(C(=O)NS(=O)(=O)c2cc(Cl)cc(Cl)c2)NC(=O)C2CCCN2C1=O (centres unmarked) [Compound 2108] | < 10
19 | CC(C)(C)OC(=O)N[C@H]1CCCCC/C=C\[C@@H]2C[C@@]2(C(=O)O)NC(=O)C2Cc3ccccc3CN2C1=O (stereo partly drawn) [Compound 2001, (1aS,9S,19aR,Z)-9-(tert-Butoxycarbonyl)-10,18-dioxo-1a,4,5,6,7,8,9,10,12,17,17a,18,19,19a-tetradecahydro-1H-11,14-diaza-bicyclo[13.1.0]hexadeca-1(15), 2-dieno[11,12-b]isoquinoline-19a-carboxylic acid] | > 10
20 | CC(C)(C)OC(=O)NC1CCCCCCCC=CC2CC2(C(=O)NS(=O)(=O)C(F)(F)F)NC(=O)C2CCCN2C1=O (centres unmarked) [Compound 2107] | < 1

Row | Structure (SMILES) | IC50 [µM]
21 | COc1ccccc1CCNS(=O)(=O)NC(=O)[C@@]12C[C@H]1/C=C\CCCCC[C@H](NC(=O)OC(C)(C)C)C(=O)N1CCC[C@H]1C(=O)N2 [Compound 415] | > 10
22 | CC(C)(C)OC(=O)N[C@H]1CCCCC/C=C\[C@@H]2C[C@@]2(C(=O)NS(=O)(=O)NCCc2ccccn2)NC(=O)[C@@H]2CCCN2C1=O [Compound 423] | < 10
23 | CC(C)(C)OC(=O)N[C@H]1CCCCC/C=C\[C@@H]2C[C@@]2(C(=O)NS(=O)(=O)c2cccc(F)c2)NC(=O)[C@@H]2CCCN2C1=O [Compound 2113] | < 10
24 | CC(C)(C)OC(=O)N[C@H]1CCCCC/C=C\[C@@H]2C[C@@]2(C(=O)NS(=O)(=O)c2cccc(C(F)(F)F)c2)NC(=O)[C@@H]2CCCN2C1=O [Compound 2149] | < 10
25 | CS(=O)(=O)NC(=O)[C@@]12C[C@H]1/C=C\CCCCC[C@H](NC(=O)OC1CCCC1)C(=O)N1C[C@H](OC(=O)N3CCc4ccccc4C3)C[C@H]1C(=O)N2 [Compound 119] | < 0.1
26 | CC(C)(C)OC(=O)N[C@H]1CCCCC/C=C\[C@@H]2C[C@@]2(C(=O)NS(=O)(=O)Cc2ccccc2)NC(=O)[C@@H]2CCCN2C1=O [Compound 2135] | < 1
27 | CC(C)(C)OC(=O)N[C@H]1CCCCC/C=C\[C@@H]2C[C@@]2(C(=O)NS(=O)(=O)NCc2ccccn2)NC(=O)[C@@H]2CCCN2C1=O [Compound 425] | > 10
28 | CCOC(=O)[C@@]12C[C@H]1/C=C\CCCCC[C@H](Nc1c(N3CCC3)c(=O)c1=O)C(=O)N1C[C@H](OC(=O)N3Cc4cccc(F)c4C3)C[C@H]1C(=O)N2 [Compound 645] | < 0.1
29 | CC(C)(C)OC(=O)N[C@H]1CCCCC/C=C\[C@@H]2C[C@@]2(C(=O)NS(=O)(=O)Nc2ccc(Cl)cc2Cl)NC(=O)[C@@H]2CCCN2C1=O [Compound 410] | > 10
30 | COc1cccc(NS(=O)(=O)NC(=O)[C@@]23C[C@H]2/C=C\CCCCC[C@H](NC(=O)OC(C)(C)C)C(=O)N2CCC[C@H]2C(=O)N3)c1 [Compound 2240] | < 1
31 | CC(C)(C)OC(=O)N[C@H]1CCCCC/C=C\[C@@H]2C[C@@]2(C(=O)NS(=O)(=O)NCc2ccccc2)NC(=O)[C@@H]2CCCN2C1=O [Compound 2232] | < 10
32 | CN(C)S(=O)(=O)NC(=O)[C@@]12C[C@H]1/C=C\CCCCC[C@H](NC(=O)OC(C)(C)C)C(=O)N1CCC[C@H]1C(=O)N2 [Compound 2202] | < 10
33 | CC(C)(C)OC(=O)N[C@H]1CCCCC/C=C\[C@@H]2C[C@@]2(C(=O)NS(=O)(=O)C2(Cc3ccccc3)CC2)NC(=O)[C@@H]2CCCN2C1=O [Compound 301] | < 10
34 | CC(C)(C)OC(=O)N[C@H]1CCCCC/C=C\[C@@H]2C[C@@]2(C(=O)NS(=O)(=O)c2ccc(F)cc2)NC(=O)[C@@H]2CCCN2C1=O [Compound 2114] | < 10
35 | CN(C)CCNC(=O)[C@@]12C[C@H]1/C=C\CCCCC[C@H](NC(=O)OC(C)(C)C)C(=O)N1C[C@H](OC(=O)N3Cc4cccc(F)c4C3)C[C@H]1C(=O)N2 [Compound 608] | > 10
